{"source": "paper PMC7217877", "about": "“N-AS-triggered SPMs are direct regulators of microglia in a model of Alzheimer’s disease” (Nature Communications, 2020)", "key": {"APP/PS1 mice": {"tested_on": "APP/PS1 mice", "experiment": "flow cytometry of brain microglia polarity (CD86/CD206, Fig 4e)", "type": "in vivo, mouse", "details": "APP/PS1 + N-AS, individual values", "procedure": "Transgenic mouse lines over-expressing the hAPP695swe (APP) and presenilin-1M146V (PS1) mutations were originated from GlaxoSmithKline (Harlow, UK)[32] and maintained as described previously. We purchased 5×FAD mice from Jackson Labs (Stock number. 34840-JAX). Because APP/PS1 and 5xFAD mice show sex differences in disease progression, we used only male mice. To examine possible therapeutic effect of N-AS and aspirin in APP/PS1 mice, the N-AS (30 mg kg^−1, Sigma-Aldrich, 01912) was injected daily s.c. for 8 weeks to 7-months-old APP/PS1 mice until the age of 9 months, and aspirin (2 mg kg^−1, Sigma-Aldrich, A5376)[33] was administrated orally to 7-months-old APP/PS1 mice for 8 weeks. Also, to confirm possible therapeutic efficacy of N-AS in 5×FAD, the N-AS (30 mg kg^−1, Sigma-Aldrich, 01912) was injected daily s.c. for 4 weeks to 3-months-old 5×FAD mice until the age of 4 months. Block randomization method was used to allocate the animals to experimental groups. To eliminate the bias, we were blinded in experimental progress such as data collection and data analysis. Mice were housed at temperature of 22 °C and a 12 h day/12 h night cycle with free access to tap water and food pellets. All protocols were approved by the Kyungpook National University Institutional Animal Care and Use Committee.\nBrain microglia polarity and immune cells in brain and blood were analyzed by flow cytometry. Cells from WT, APP/PS1, and APP/PS1 treated with N-AS mice brain were prepared as previously described with minor modifications. Brains of WT, APP/PS1, and APP/PS1 treated with N-AS mice were dissected and immediately transferred in ice-cold HBSS (Gibco). After gentle mincing, the brain was digested in a HBSS solution containing collagenase P (0.2 mg ml^−1, Roche), dispase II (0.8 mg ml^−1, Roche), DNase I (0.01 mg ml^−1, Roche), and collagenase A (0.3 mg ml^−1, Roche) at 37 °C for 1 h under gentle rocking. […] Red blood cells were lysed once at 4 °C for 10 min in 0.15 M NH4Cl ([…] Technologies), washed once with PBS (Gibco), and counted using cell counter (Logos biosystems). […]"}, "neuron": {"tested_on": "neuron", "experiment": "sphingosine level in primary cells (UPLC)", "type": "cell-based, C57BL/6 mice", "details": "Ab 10mM, replicates", "procedure": "To confirm the generation and roles of N-AS in neurons, cells from E18 C57BL/6 mice were prepared as previously described. Cortices were dissected and then dissociated followed by incubation in papain (Worthington) at 37 °C for 15 min. Neurons were plated on poly-L-lysine-coated coverslips with neuronal culture medium, serum-free Neurobasal medium (Gibco) containing 2% B27 supplements (Gibco), 1 mM Glutamax supplement (Gibco), and 100 U ml^−1 streptomycin/ 100 U ml^−1 penicillin (Gibco) at 37 °C in a humidified atmosphere of 5% CO2. […] Primary astrocyte cultures were prepared from C57BL/6 mice as described previously. In brief, after removal of the meninges, postnatal day 7 (P7) mouse brain tissues were minced and incubated in a rocking water bath at 37 °C for 30 min in the presence of 0.25% trypsin-EDTA (Sigma-Aldrich). […] The human microglia treated with Aβ 1–42 and/or zileuton was incubated with N-AS (2.5 μM, 2 h, Sigma-Aldrich, 01912), and were analyzed for the generation and roles of N-AS.\nTo quantify the sphingosine levels, the dried lipid extract was resuspended in 0.2% Igepal CA-630. […] The fluorescent sphingosine was monitored using a model 474 scanning fluorescence detector (Waters). Quantification of the sphingosine was calculated from sphingosine calibration curves using the Waters Millennium software."}}, "note": "Values joined by “and” are separate entries in the source; they are usually repeats but may differ in a detail not shown here. Equal values may be shown once."}
{"molecule": "CCCCCCCCCCCCC/C=C/[C@@H](O)[C@H](CO)NC(C)=O", "note": "[N-AS, N-((2S,3R,E)-1,3-Dihydroxyoctadec-4-en-2-yl)acetamide]", "values": [{"measurement": "calculated percentage of CD86+ CD206+ cells", "setting": "APP/PS1 mice", "value": "1.29 and 0.77 and 0.87 and 1.7 and 1.28 and 1.46"}, {"measurement": "calculated percentage of CD86+ CD206- (pro-inflammatory microglia) cells", "setting": "APP/PS1 mice", "value": "0.012 and 0.071 and 0.011 and 0.023 and 0.034 and 0.025"}, {"measurement": "calculated percentage of CD86- CD206+ (anti-inflammatory microglia) cells", "setting": "APP/PS1 mice", "value": "3.06 and 1.43 and 2.01 and 2.77 and 2.35 and 2.46"}]}
{"molecule": "Ab: Aβ 1–42 (Invitrogen, 03112) used to induce an AD environment in cells", "values": [{"measurement": "sphingosine (Fig 3f)", "setting": "neuron", "value": "0.1262 and 0.1156 and 0.1288 and 0.1301 and 0.1222 and 0.1295"}]}
